Results taken from patent publication US10246488B2, “Use of inhibitory peptides for the treatment of inflammatory diseases” (Yeda Research and Development Co. Ltd., priority 2013, dated 2019).
Blank lines part the entries; values can stand above or below the substance they belong to. Ends that are not written are not given here. * marks the point of attachment. Myristoyl = CCCCCCCCCCCCCC(=O)*

Columns and labels:
[1] = biological target: T1, interaction of JNK1/2 and p38α/β with Imp7 (Homo sapiens, UniProt O95373); test: Co-immunoprecipitation of MAPKs with importins from extracts of treated HeLa cells; type: cell-based; settings: for interaction of p38 with Imp7 (CoIP): HeLa cells pre-incubated with modified peptide 2 hours, anisomycin 0.5 μg/ml 15 min; for Imp7/9 interactions of the MAPKs examined (JNK1/2 and p38α/β), Co-IP: HeLa cells, peptide 10 μM applied prior to stimulation, Anisomycin 0.5 μg/ml
T1 construct: endogenous in cells; host or cells: HeLa
T1 sequence (O95373 whole entry): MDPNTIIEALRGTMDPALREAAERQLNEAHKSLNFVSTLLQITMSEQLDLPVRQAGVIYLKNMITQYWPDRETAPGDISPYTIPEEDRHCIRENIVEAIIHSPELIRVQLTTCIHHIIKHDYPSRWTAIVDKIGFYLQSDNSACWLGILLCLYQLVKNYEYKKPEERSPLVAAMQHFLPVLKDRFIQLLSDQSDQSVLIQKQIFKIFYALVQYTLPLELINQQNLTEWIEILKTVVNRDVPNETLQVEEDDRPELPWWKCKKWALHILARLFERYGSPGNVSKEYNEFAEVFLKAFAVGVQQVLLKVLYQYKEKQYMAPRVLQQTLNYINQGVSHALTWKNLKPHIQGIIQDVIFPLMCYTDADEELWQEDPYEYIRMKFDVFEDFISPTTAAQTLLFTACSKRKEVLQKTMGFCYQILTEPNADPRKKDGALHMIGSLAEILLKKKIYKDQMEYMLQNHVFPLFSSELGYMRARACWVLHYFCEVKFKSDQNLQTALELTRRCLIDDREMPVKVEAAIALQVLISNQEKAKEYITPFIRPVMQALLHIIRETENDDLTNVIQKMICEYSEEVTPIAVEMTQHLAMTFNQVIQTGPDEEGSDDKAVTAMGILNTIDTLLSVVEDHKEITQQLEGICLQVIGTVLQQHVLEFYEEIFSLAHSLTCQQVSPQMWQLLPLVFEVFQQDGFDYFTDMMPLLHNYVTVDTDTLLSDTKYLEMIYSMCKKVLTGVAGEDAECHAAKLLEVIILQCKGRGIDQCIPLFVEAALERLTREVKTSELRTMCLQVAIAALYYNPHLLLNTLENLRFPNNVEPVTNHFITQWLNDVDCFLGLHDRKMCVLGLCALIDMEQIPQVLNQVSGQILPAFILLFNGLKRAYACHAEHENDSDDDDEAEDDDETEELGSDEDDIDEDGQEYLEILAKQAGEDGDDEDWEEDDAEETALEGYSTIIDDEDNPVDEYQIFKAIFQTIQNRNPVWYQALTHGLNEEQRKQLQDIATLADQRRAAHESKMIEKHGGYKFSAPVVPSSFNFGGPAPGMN
Protocol: (§1) HeLa cells were grown on slides to 70% confluence, serum starved (0.1% FBS, 16 hrs), and then either incubated with the inhibitory peptide (Peptide, 10 μM) or scrambled peptide (Scr peptide, 10 μM), cells were then treat with Anisomycin (Anis, 0.5 μg/ml) or left untreated (NT). Cells were fixed, and stained with anti JNK1, JNK2, p38α or p38β Abs as indicated, and DAPI to detect nuclei. The slides were visualized using a fluorescent microscope. […] HeLa cells were grown to 70% confluence, serum starved (0.1% FBS, 16 hrs), and then either incubated with the inhibitory peptide (Peptide, 10 μM), scrambled peptide (Scr peptide, 10 μM), or DMSO, followed by treatment with Anisomycin (Anis, 0.5 μg/ml) or mock control (NT). Cell extracts were then subjected to Co-IP with anti JNK1, JNK2, p38α, p38β Abs. The interacting Imp7 was detected by Western blot with the indicated anti Imps Abs. Amount of IPed MAPKs was detected by the anti JNK1, JNK2, p38α and p38β Abs as indicated.
(A) Myristiolated peptide was modified (replacement of 3 residues to alanin) Myr-KPERYQNLSPVGSGA—SEQ ID NO: 9; Myr-KPERYQNLSPVAAAA—SEQ ID NO: 10. (B) Hela cells were pre-incubated with modified peptide (2 hours) then either stimulated with anisomycin (Anis, 0.5 μg/ml, 15 min) or left untreated. Cell extracts were then subjected to CoIP with anti p38a . The interacting Imp7 or IPed p38 were detected by Western blot with indicated Abs.
Co-Immunoprecipitation: HeLa cells were grown to subconfluency, serum-starved (0.1% FBS for 16 h) and then stimulated or treated with other drugs. Cell extracts were produced as previously described and incubated for 2 hours (4° C., with rotation) with A/G-agarose beads (Santa Cruz Biotechnology) pre-linked with specific Abs (1 hrs, 23° C.). The bound A/G beads were washed three times with ice-cold washing buffer. The IPed beads were then resuspended with 1.5× sample buffer and boiled; the resolved proteins were analyzed by Western blotting with the indicated Abs.
CoIP: Cell extracts were produced and incubated for 2 hr (4° C., with rotation) with A/G-agarose beads pre-linked with specific Abs (1 hr, 23° C.). The bound A/G beads were washed, resuspended (1.5× sample buffer), boiled and subjected to Western blotting.

JNK1/2 and p38α/β = test: Immunofluorescence of stimulated nuclear translocation of JNK1/2 and p38α/β in HeLa cells; type: cell-based; settings: for stimuli-dependent nuclear translocation of JNK1/2 and p38α/β: HeLa cells, peptide 10 μM applied prior to stimulation, Anisomycin 0.5 μg/ml
Protocol: FIGS. 2A-2C illustrate that Imp3, 7 and 9 are required for JNK and p38 translocation and induced transcription. (A) Si RNAs of Imp3, 7, 9, but not Imp5, inhibit the stimulated JNK and p38 nuclear translocation. HeLa cells were grown on cover slides to 30% confluence. si RNAs of the indicated Imps and si Control supplied by the company (si Scr, negative control) were then transfected to the cells using Dharmafect according to the manufacturer's instructions. Forty eight hrs after transfection, the cells were serum starved, then either stimulated with Anisomycin (0.5 μg/ml, 15 min), or left untreated (NT) as indicated. The cells were then fixed, stained using the indicated (left) anti MAPK Abs and visualized using a fluorescent microscope. (B) Quantification of JNKs/p38s nuclear localization prior and upon stimulation. Data shown represents mean±S.E. The significance of Imp3 vs. Imp7/Imp9 (*) was p<0.0003. The significance of stimulated Imp3/7/9 vs Scr was p<0.00001 (C) Si RNA of Imp3, 7, 9 inhibit the activation of downstream transcription factor targets of JNKs/p38s. HeLa cells were transfected with si RNAs of the indicated Imps and si control supplied by the manufacturer (si Scr, negative control) using Dharmafect according to the manufacturer instructions. Forty eight hrs after transfection, the cells were serum starved, and then stimulated with Anisomycin (Anis 0.5 μg/ml) for the indicated times or left untreated (NT). Cell extracts were subjected to a Western blot analysis with anti pJUN, pMEF2A, pATF2, indicated Imps, and tubulin Abs.
as §1, with “indicated. […]” for “indicated.”
FIGS. 19A-19C illustrate that myristoylated peptides inhibit the stimulation dependent nuclear translocation of p38. […] The nuclei were detected using DAPI and slides were visualized using a spinning disc confocal microscope (Zeiss, ×100 magnification). […]

MAPKs = test: Western blot of stimulation-dependent activation of MAPKs in HeLa cells; type: cell-based; settings: HeLa cells pre-incubated with peptide, Anisomycin 0.5 μg/ml or TPA 250 nM
Protocol: HeLa cells were grown to 70% confluence, serum starved and pre-incubated with either new peptide (NP), peptide or scrambled peptide and then either stimulated with Anisomycin (Anis 0.5 μg/ml), TPA (250 nM) or left untreated (NT). Cell extracts were produced and subjected to Western blot analysis with the indicated Abs.

DSS-induced Colitis = test: DSS-induced colitis model; type: in vivo; settings: male C57BL mice, 15 mg/Kilo I.V every 48 hours, DSS 1.25% in drinking water, 7 days, compared with control peptide
Protocol: FIGS. 17A-17C illustrate the use of inhibitory peptide as a potential therapeutic agent in colitis model. 21 male C57BL mice treated (I.V every 48 hours) with either peptide (15 mg/Kilo), scramble peptide (15 mg/Kilo) or DMSO (2%). Colitis was induced using DSS (1.25% in drinking water) and mice were sacrificed 7 days post induction. (A-C). Colitis was evaluated using endoscopic imaging and scored for the number of lesions in the colon and weight of mice.
In vivo experiment: 21 male C57BL mice were weighed then injected (I.V) with either peptide (15 mg/Kilo), scramble peptide (15 mg/Kilo) or DMSO (2%). Twenty-four hours post injection drinking water of the mice was replaced with water containing DSS (1.25%), peptide, scramble peptide or DMSO were injected every forty-eight hours. Mice were sacrificed seven days post replacement of drinking water, and colitis was assessed using endoscopy and weight of mice.

[2] = listed as 14 amino acid myristoylated peptide

- interaction of p38 with Imp7 (CoIP) [1]: blocks the interaction
- interaction of p38 with Imp7 (CoIP) ([1]; listed as newly designed peptide): inhibited
Substance: Myr-KPERYQNLSPVAAAA (Myristoyl-KPERYQNLSPVAAAA) [myristoylated peptide modified by replacement of 3 residues to alanin]
- stimulation-induced nuclear translocation of JNK and p38 MAPKs (JNK1/2 and p38α/β; HeLa cells pre-incubated with peptide, Anisomycin 0.5 μg/ml 15 min, spinning disc confocal microscope): prevented
- stimulation-dependent activation (kinase activity) of MAPKs (MAPKs): without affecting

Substance: Myr-KPERYQNLSPVGSGA (Myristoyl-KPERYQNLSPVGSGA)
- DSS-induced Colitis (average weight loss and number of lesions in the colon) (DSS-induced Colitis): reduced DSS-induced Colitis

- Imp7/9 interactions of the MAPKs examined (JNK1/2 and p38α/β), Co-IP [1]: prevented
- Imp7/9 interactions of the MAPKs examined (JNK1/2 and p38α/β), Co-IP [1, 2]: prevented
- Imp7/9 interactions of the MAPKs examined (JNK1/2 and p38α/β), Co-IP ([1]; listed as inhibitory peptide): inhibits the interaction
Substance: Myr-PERYQNLSPVGSGA (Myristoyl-PERYQNLSPVGSGA) [14 amino acid myristoylated peptide based on residues 21-34 of p38α]
- stimuli-dependent nuclear translocation of JNK1/2 and p38α/β (JNK1/2 and p38α/β): prevented the nuclear translocation
- stimuli-dependent nuclear translocation of JNK1/2 and p38α/β (JNK1/2 and p38α/β; [2]): prevented the nuclear translocation
- stimuli-dependent nuclear translocation of JNK1/2 and p38α/β (JNK1/2 and p38α/β; listed as inhibitory peptide): inhibits the stimuli-dependent nuclear translocation
